Data on one compound can be found in patent publication US20230097085A1, “[6R]-MTHF IN 5-FU BASED CHEMOTHERAPY OF RIGHT-SIDED COLORECTAL CANCER” (Isofol Medical AB, priority 2021, published 2023).

The assay deals with solid colorectal cancer tumors (metastatic colorectal cancer). Description: Clinical study ISO-CC-005 (safety extension cohorts #18/#19 and Follow-up study): tumour response by CT/MRI per RECIST 1.1. In kind it is in vivo, human. From the text: As used herein, the term ORR shall refer to the Objective Response Rate, ie. the proportion of patients with reduction in tumor burden of a predefined amount. […] (Note: the appearance of one or more new lesions is also considered progression). […] 2019. The completion of the study was announced in January 2020. In total, 105 patients were included in the study. Applicant completed the dose definition part of ISO-CC-005 in March 2018, which evaluated the safety and efficacy of arfolitixorin in patients with mCRC. Shortly after, applicant started two additional treatment groups in 2018 to generate more safety and efficacy data, i.e. the safety extension Cohort #18 (Treatment Arm #4) and Cohort #19 (Treatment Arm #6). The aim was to evaluate as many patients as possible from the additional treatment groups after a treatment period of 16 weeks+. On 30 Sep. 2020, applicant announced response assessment data from the two safety extension cohorts (31 patients) treated for 16 weeks or longer (press release: 55% Overall Response Rate on the safety extension cohorts of the ISO-CC-005 Phase Ulla study BioSpace). […] Out of the 31 patients, 17 were treated with an ARFOX regimen. Clinical Study ISO-CC-005 was an exploratory, […] multiple-centre study to be carried out in Stadium IV CRC patients. […] In the Main Study, patients received study treatment with arfolitixorin during eight (8) weeks. Patients eligible for the Follow-up study could participate until reaching progress, but no longer than 18 months. Enrolled patients, stadium IV CRC patients, were aware of the relatively poor prognosis of their disease. Those patients who could continue benefitting from treatment with a […] effective therapy, were offered the possibility to continue study treatment by participating in the Follow-up Study. In the Follow-up Study patients continued to receive the same treatment as assigned during the Main Study period. However, the Investigator could complete the allocated treatment with other therapeutic agents of choice in alignment with standard of care in order to adapt treatment to the patient's specific needs and, in this way, provide optimal care. Response was measured in short- and long-term assessments. During the Main Study phase, only short-term assessments of tumour response were explored by means of objective response rate (ORR) and early tumour shrinkage (ETS). These assessments were to be used as indicators of prognostic factor in ascertaining earlier non responders and to explore the correlation to other factors such as folate levels, tumour biomarkers, or expression levels of certain key genes. […]

A value given as a limit tells only on which side of the number the result lay.

Regarding `Nc1nc2c(c(=O)[nH]1)N1CN(c3ccc(C(=O)N[C@@H](CCC(=O)O)C(=O)O)cc3)C[C@H]1CN2` [arfolitixorin, [6R]-5,10-methylenetetrahydrofolate], under “31 patients of the two safety extension cohorts treated 16 weeks or longer, 120 mg/m2 arfolitixorin + 5-FU with irinotecan or oxaliplatin (ARFIRI/ARFOX)”, the “best overall response rate (ORR)” value is listed as 55%. In addition, the “progression of solid tumors between 8 and 16 weeks after initiating treatment” value ([6R]-MTHF and 5-FU, treatment period of at least 8 weeks, Phase I/IIa study ISO-CC-005) is recorded as “No statistically significant progression”. Besides, the “best ORR in patients diagnosed with RCRC” value (right-sided CRC patients (13) of the 31-patient group, after 16 weeks and beyond, 120 mg/m2 arfolitixorin + 5-FU + irinotecan or oxaliplatin) is listed as 46%. Besides, the “best ORRs (objective response rates) that can be achieved” value (right-sided CRC patients incl. BRAF/KRAS mutation-positive, protocol over at least 16 weeks with multiple rapid boluses) is > 50%.
